Consider two molecules from patent US7067633B2, “Targeting cellular entry, cell survival, and pathogenicity by dynein light chain 1/PIN in human cells” (Board of Regents, The University of Texas System, priority 2003, dated 2006).

In test [1] the test system is Ishikawa and MCF-7/TAMR1 cells. Description: Growth of Tam-resistant cells (cell number). The test is classed as cell-based, human. The method, then:
FIGS. 22A–22F—DLC1 deregulation potentiates ligand-induced growth and anchorage-independence. FIG. 22A: DLC1 upregulation potentiates growth stimulation by E2 in a Tam-insensitive manner. MCF-7/DLC1 cells were treated with or without Dox and then with E2 (10^−9M) or Tam (10^−8M) for 5 days, and the cell number was determined. FIG. 22B: DLC1 upregulation promotes anchorage independence. […] FIG. 22C: DLC1 expression supports optimum growth of Tam-resistant cells. Ishikawa and MCF-7/TAMR1 cells were transfected with control or DLC siRNA for 48 h and then treated with or without Tam (10^−8M) for 96 h, and the cell number was determined. FIG. 22D: DLC1-mediated potentiation of ER transactivation depends on the Pak1 status in Ishikawa and MCF-7/TAMR1 cell lines. Ishikawa and MCF-7/TAMR1 cells were transfected with control or Pak1 siRNA for 48 h and then with ERE-luc for 24 h and treated with E2 (10^−9M) for 24 h and ERE-luc activity was measured. FIG. 22E: Pak1 expression level influences the growth of Tam resistant cells. Ishikawa and MCF-7/TAMR1 cells were treated with control or Pak1 siRNA for 48 h and treated with or without Tam (10^−8M) for 4 days, and cell number was determined. FIG. 22F: Co-downregulation of Pak1 and DLC1 in Tam-resistant cells restores Tam-sensitivity. […]

A further test concerns ZR 75 cells. As to the kind of experiment: Boyden chamber migration assay, NIH3T3 conditioned medium. The test is classed as cell-based, human. Particulars: stable ZR75 clones. As for the experimental part:
FIGS. 4A–4E—Effect of DLC1/PIN expression on cell motility. FIG. 4A: expression of DLC1/PIN in a number of normal and breast cancer cells analyzed by western blot analysis. FIG. 4B: Expression of T7-DLC1/PIN in stable clones analyzed by western blot analysis. FIG. 4C: Effect DLC1/PIN expression on the motility. Migratory potential of DLC1/PIN wild type or DLC1/PIN^del88-89 mutant expressing clones was measured by Boyden chamber assay using NIH3T3 conditioned medium as chemoattractant. Migrated cells were recorded by microscopy. Representative data of three replicate experiments is shown. FIG. 4D: ZR75/RFP-DLC1 cells which stably expressing wild type red florescent-tagged DLC1/PIN protein (RFPDLC1/PIN) was incubated with FITC-dextran beads. After twenty minutes, cells were fixed with methanol and stained for endogenous Pak1 (blue), RFPDLC1/PIN (red) and FITC-dextran (green). An inset containing the cytoplasmic region was blown up to visualize the colocalization of Pak1 and DLC1/PIN on dextran beads. Merged images are presented in the upper right panel, and colocalization of Pak1 with DLC1/PIN can be visualized as white vesicles due to colocalization of pixels from Pak1 (blue), DLC1/PIN (red) and FITC dextran (green). FIG. 4E: ZR75/RFP-DLC1/PIN were transfected with a dominant negative mutant of Pak1 K299RLL (a myc-tagged kinase dead and GTPase binding defective construct of Pak1). […]

As to `CC/C(=C(\c1ccccc1)c1ccc(OCCN(C)C)cc1)c1ccccc1` [tamoxifen], the “growth of cells with downregulated DLC” value in test [1] (Tam 96 h) is “further reduced the growth”. Besides, the “growth of cells with downregulated Pak1” value in test [1] (Tam 4 days) is listed as “no further significant effect”. “DLC1/PIN^del 88-89: DLC1/PIN mutant in which Ser88 and amino acid 89 were deleted”: the migratory potential result in the test with ZR 75 cells is “abolished DLC1/PIN mediated increase in the migratory potential”.
